Earlier results as cited in patent publication US20050232985A1, “Ciprofloxacin hcl” (priority 2002, published 2005).
Where a name gives a salt, the structure may show the parent alone.

Tests used:
[1] = system: Pseudomonas aerugenosa, golden yellow Staphylococcus and Streptococcus pneumoniae
[2] = system: Excherichia Coli, Klebsiella SPP., and other Enterobacter SPP., Bacillus—negative

For O=C(O)c1cn(C2CC2)c2cc(N3CCNCC3)c(F)cc2c1=O [Ciprofloxacin Hydrochloride, I-cyclopropyl-6-fluoro-1,4-dihydro-4-oxo-7-(I-piperazinyl)-3-quinolinecarboxylic acid], the “antibacterial action versus Norfloxacin and Peifloxacin” value [1] is given as “better than other known derivatives”, the “antibacterial action versus Penicillin kinds of antibiotic” value (Streptococcus SPP.) is given as “less than Penicillin kinds of antibiotic” and the antibacterial activity [2] is given as “wide range antibacterial activity”.
